{"source": "paper PMC12400753", "about": "(Respiratory Research, 2025)", "key": {"[1]": {"system": "mouse alveolar macrophages", "assay": "IL-1β release of alveolar macrophages from orally dosed mice, ex vivo LPS", "assay_type": "in vivo", "details": "3 mg/kg oral, 24 h before isolation; with and without ex vivo LPS", "method": "1.5 mL DPBS was injected into lungs and BAL fluid aspirated. Cells were plated in at 40,000 cells/well and stimulated first with 500 ng/mL LPS for 4 h then and 1 µM LPA for an additional hour at 37 °C. Plates were spun down and supernatant analyzed for IL-1β by ELISA."}, "[2]": {"system": "primary human lung fibroblasts", "assay": "TGFβ1- or LPA-induced myofibroblast transformation (αSMA, COL1A1)", "assay_type": "cell-based", "details": "PIPE-791 1 µM", "method": "TGFβ1 was used at 5 ng/mL. In addition to COL1A1 immunostaining, cells were co-immunostained with aSMA followed by a goat anti-rabbit Alexa647 secondary antibody."}, "[3]": {"system": "bleomycin-induced lung fibrosis", "assay": "Intratracheal bleomycin mouse model (14 day, prophylactic dosing)", "assay_type": "in vivo", "details": "for body weight improvement over bleomycin alone: day 14", "method": "Intratracheal instillation of bleomycin results in acute alveolar cell damage, inflammation, and subsequent tissue remodeling and is a widely used preclinical IPF model.\nFemale C57BL6/N mice 8–10 weeks old were obtained from Charles River. […] Bleomycin was administered by oropharyngeal instillation 23 h after first dose (Day 0). On the day of instillation, bleomycin was prepared by diluting a 15 unit (U) vial to 1.5 U/mL with sterile saline. Mice were lightly anesthetized with isoflurane (5% in 100% O2) and administered sterile saline or bleomycin (3.0 U/kg) via oropharyngeal instillation at a dose volume of 2 mL/kg (2 µL/g). Mice were returned to their cages and monitored daily for the duration of each experiment. […] Fourteen days after bleomycin instillation, mice were euthanized via isoflurane anaesthesia, cardiac blood collected into K3EDTA tubes and stored on wet ice, and BALF and lungs were isolated for subsequent analysis of biochemical and histopathological indices of lung injury, inflammation, and fibrosis. To do this, mice were intubated with a 20-gauge luer stub adapter connected to a 3-way stopcock fitted with two 3 mL syringes (the delivery syringe was pre-filled with 1.5 mL phosphate buffered saline (PBS), and the receiving syringe was empty). Lungs were lavaged with PBS (2 × 0.75 mL) to obtain BALF. BALF was placed on wet ice until centrifugation to separate from cells. Lungs were dissected and placed into 1 mL 6 M HCl for collagen analysis using the Quickzyme total collagen assay kit according to manufacturer’s instructions. At the end of the experimental collection, BALF was centrifuged (300 x g, 10 min, 4 °C) to isolate BALF from the cell pellet. The cell pellet was discarded and the BALF aliquoted and stored at −80 °C for biomarker analysis. For the analysis, n = 8 biological replicates were analyzed in singlicate for various biomarkers (total protein, TGFβ1, TIMP-1, procollagen) according to manufacturer’s recommended instructions."}, "[4]": {"system": "fresh human PCLS from donors with pulmonary fibrosis", "assay": "Secreted biomarkers in fresh PCLS from pulmonary fibrosis donors", "assay_type": "cell-based", "details": "PIPE-791 0.03, 0.3, 3 µM; 48 h", "source_text": "Translationally, biomarker-based strategies for assessing aberrant extracellular matrix deposition and remodeling in the context of disease pathogenesis and compound efficacy have become increasingly relevant. For the PCLS gene expression studies, slices were preserved through slow cryogenic freezing of tissue. While this affords experimental flexibility, some physiological relevance is lost over the course of cryostorage and recovery (e.g., immune cell loss). To circumvent this, fresh PCLS from two donors with pulmonary fibrosis were generated and immediately placed into culture. For this experiment, well-established, secreted fibrotic markers that encompass fibrogenesis and tissue remodeling were measured: C3M (a marker of collagen III degradation and an indicant of ECM remodeling and tissue turnover), Pro-C3 (a neo-epitope fragment of collagen III and a marker of active fibrogenesis and fibrosis progression), and Pro-C6 (a neoepitope fragment of COLVIA3 and a marker of remodeling and wound healing). […] Media was then removed and analyzed for biomarker concentration.\nPCLS cultures for secreted biomarker analysis were performed at Fraunhofer ITEM (Hanover, Germany) using tissue from pathologist qualified, pulmonary fibrosis patients. Tissue from individual donors and 2 lung regions were collected in accordance with policies approved by the Hanover Medical School ethics committee. Only fibrotic tissue was used for experiments. Region 1 consisted of subpleural tissue and Region 2 of central tissue. For each, lung lobes were filled with low-melting agarose then sectioned at 300 μm on a Krumdiek tissue slicer as described in Hesse et al., 2022. Slices were incubated in DMEM containing penicillin and streptomycin, two slices per region were used. […] Supernatant was collected and shipped to Nordic Bioscience (Herlev, Denmark) for C3M, Pro-C6 and Pro-C3 analysis. Donor information can be found in Additional File 1."}, "[5]": {"parameters": "method as in NCT05983939", "details": "Phase I; ref NCT05983939; cited from earlier work"}, "[6]": {"system": "primary human lung fibroblasts", "assay": "LPA-induced COL1A1 expression (immunocytochemistry)", "assay_type": "cell-based", "details": "1 µM LPA 8 h; compound overnight; read-out: IC50 inhibition of COL1A1 expression", "method": "COL1A1 assay: Primary human lung fibroblasts were plated in a 96-well plate and allowed to adhere. […] The next day, cells were treated with 1 µM LPA and incubated for 8 h. After incubation in LPA, cells were immunostained for COL1A1. Cells were fixed in formalin for 10 min, washed 3 x with PBS, incubated in collagen 1A1 antibody (1:250 in blocking buffer, 0.1% Triton X-100 in PBS, 2 h), and washed 3 x with PBS. Secondary antibody solution (1:500) and Hoechst (1:2000) were added for 1 h, washed 3 x in PBS then imaged on a Nikon A1R confocal microscope at 10x magnification except human lung fibroblasts which were imaged at 4x. Collagen area was quantified with ImageJ and normalized to Hoechst per image."}}}
{"smiles": "COc1ccc(NC(=O)N(c2ccccc2C(C)C)C2CCC(C(=O)O)CC2)c(OC(F)F)n1", "note": "(stereo not drawn) [PIPE-791]", "values": [{"measurement": "IL-1β levels of isolated alveolar macrophages", "setting": "[1]", "result": "comparable to baseline"}, {"measurement": "COL1A1 induction", "setting": "[2]; LPA stimulation", "result": "significantly inhibited"}, {"measurement": "αSMA expression", "setting": "[2]; LPA stimulation", "result": "significantly inhibited"}, {"measurement": "COL1A1 induction", "setting": "[2]; TGFβ1 stimulation", "result": "significantly inhibited"}, {"measurement": "αSMA expression", "setting": "[2]; TGFβ1 stimulation", "result": "significantly inhibited"}, {"measurement": "body weight improvement over bleomycin alone", "setting": "[3]; 0.03 mg/kg oral once a day", "result": 28, "unit": "%"}, {"measurement": "lung hydroxyproline (collagen)", "setting": "[3]; 0.03 mg/kg oral once a day, p = 0.077", "result": "trending decrease in collagen, the values did not reach statistical significance"}, {"measurement": "reduction in lung hydroxyproline", "setting": "[3]; 0.3 mg/kg oral once a day", "result": 41, "unit": "%"}, {"measurement": "body weight improvement over bleomycin alone", "setting": "[3]; 0.3 mg/kg oral once a day", "result": 41, "unit": "%"}, {"measurement": "reduction in BAL fluid TGFβ vs bleomycin/vehicle", "setting": "[3]; 3 mg/kg oral once a day", "result": 51, "unit": "%"}, {"measurement": "reduction in BAL fluid TIMP1 vs bleomycin/vehicle", "setting": "[3]; 3 mg/kg oral once a day", "result": 57, "unit": "%"}, {"measurement": "reduction in BAL fluid procollagen vs bleomycin/vehicle", "setting": "[3]; 3 mg/kg oral once a day", "result": 65, "unit": "%"}, {"measurement": "reduction in lung hydroxyproline", "setting": "[3]; 3 mg/kg oral once a day", "result": 39, "unit": "%"}, {"measurement": "body weight improvement over bleomycin alone", "setting": "[3]; 3 mg/kg oral once a day", "result": 38, "unit": "%"}, {"measurement": "survival", "setting": "[3]; 0.03, 0.3, 3 mg/kg groups, 3 mice died in bleomycin/vehicle group", "result": "no mice lost"}, {"measurement": "maximal inhibition of lung collagen", "setting": "[3]; prophylactic, at 0.3 mg/kg (discussion)", "result": 40, "unit": "%"}, {"measurement": "secreted C3M", "setting": "[4]", "result": "reduction in C3M secretion with PIPE-791 at all concentrations tested, with significance observed at 0.03 and 3 µM"}, {"measurement": "secreted Pro-C3", "setting": "[4]", "result": "did not observe a significant decrease"}, {"measurement": "secreted Pro-C6", "setting": "[4]", "result": "significant reduction in secreted Pro-C6 at all concentrations"}, {"measurement": "safety and tolerability", "setting": "[5]", "result": "safe and well-tolerated"}, {"measurement": "IC50", "setting": "[6]", "result": 1.1, "unit": "nM"}]}
